According to patent publication US12564596B2, “Agents and methods for modulating pathogen activity” (Griffith University, priority 2018, dated 2026):

Legend:
[1] = molecular target: T1, N. gonorrhoeae MS11 pilin interaction with human rI-domain (Homo sapiens, UniProt P11215); test: SPR 1:1 competition assay, MS11 pilin binding to rI-domain
T1 construct: was performed with human rI-domain immobilized on a CM5 sensor chip surface; made in house
Method: To determine if drugs with high affinity interactions with the human rI-domain could inhibit the interaction with MS11 pilin or HIV, competition assay between primary T-cell derived WITO HIV and N. gonorrhoeae MS11 pilin and the drugs were performed as described Mubaiwa et al (2017, Sci Rep. 7(1):5693). Competition analysis SPR of N. gonorrhoeae MS11 pilin and human rI-domain interaction was performed with human rI-domain immobilized on a CM5 sensor chip surface (low immobilization—˜3500 RU compared to ˜14000 RU for initial screening and KD calculations). N. gonorrhoeae MS11 purified pilin, drug or drug and pilin were flowed at 100 nM over the I-domain and the response units of the interactions were recorded.

[2] = test system: primary T-cell derived WITO HIV interaction with human rI-domain; test: SPR 1:1 competition assay, WITO HIV binding to rI-domain; conditions: for % inhibition: 1:1 competition, 1 μM, 1 µM
Method: For competition analysis SPR of the HIV interaction with human rI-domain, primary T-cell derived WITO HIV was immobilized on a Cl sensor chip surface. Human rI-domain, drug or drug and human rI-domain were flowed at 1 μM over the immobilized HIV and the response units of the interactions were recorded. Any drug that could not compete with the virus or pilin binding to the rI-domain was also discarded. Remaining drugs were evaluated for known safety in humans and known therapeutic concentrations to determine if the drug would be tested, and at what concentrations, in in vitro cell models. All SPR sensorgrams and results plots were analyzed with Biacore S200 Evaluation Software (GE Healthcare Life Sciences).

[3] = test system: HIV strains NL4-3 and NLAD8 adherence to human PEX cells; test: Fluorometric adherence assay, HIV to PEX cells; format: cell-based; conditions: for decrease of cell association to PEX cells: 100 μM; for reduction in cell adherence to PEX cells: lowest concentration, printed 'down to 100 μM'
Method: The ability of carbamazepine to block adherence of HIV to human PEX cells was evaluated using a fluorometric adherence assay, essentially as described by Jen et al. (2013, supra). In this regard, PEX cells were seeded to a 96-well plate and allowed to grow to confluence. Fluorescently labelled HIV (10 ng of p24 HIV capsid protein equivalent of HIV in 100 μL of F12 culture media) were then used to challenge (2 h) PEX cells simultaneously with, or without, various concentrations of carbamazepine (as noted). Fluorescence (485/528 nm) intensity, corresponding to HIV cell adherence, was recorded using a Synergy HT Multi-mode Microplate Reader (BioTek Instruments, Winooski, VT USA). The assay was performed in triplicate on 3 separate occasions. A Kruskal-Wallis k-sample analysis of variance was used to determine the statistical significance of the calculated mean of viral-cell adherence.

[4] = molecular target: T2, human recombinant I-domain (rI-domain) of CD11b (Homo sapiens, UniProt P11215); test: Surface plasmon resonance binding to human rI-domain (KD); conditions: SPR, single cycle kinetics, 25° C., PBS; read-out: KD
T2 construct: made in house
T2 sequence (P11215 150-328 limits assumed): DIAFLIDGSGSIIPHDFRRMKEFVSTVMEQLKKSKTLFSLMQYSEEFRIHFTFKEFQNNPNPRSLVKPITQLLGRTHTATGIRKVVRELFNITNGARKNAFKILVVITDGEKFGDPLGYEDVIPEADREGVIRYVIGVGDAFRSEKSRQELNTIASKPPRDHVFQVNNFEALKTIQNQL

[5] = test system: N. gonorrhoeae in infected PEX cells; test: Survival assay of N. gonorrhoeae in infected PEX cells; format: cell-based, Neisseria gonorrhoeae
From the text: N. gonorrhoeae strains used in survival assays included MS11 Schoolnik et al (1984, supra), Segal et al (1985, supra) and 1291 Apicella et al (1974, J. Infect Dis. 130(6):619-25), Dudas and Apicella (1988, Infect Immun. 56(2):499-504), which are commonly used to study gonococcal pathogenesis. Also examined were a panel of low-passage clinical isolates (FIG. 14; i.e., N. gonorrhoeae strains LT38097, UT38885, PID-26, and SK92-679). Strains 1291 and LT38097 are male urethral isolates; strains MS11 and UT38885 were obtained from women with uncomplicated gonococcal cervicitis, strain PID-26 was obtained from a patient with pelvic inflammatory disease; and strain SK92-679 is a blood isolate from a patient with disseminated infection. Antibiotic-resistant N. gonorrhoeae strains tested were obtained from Public Health England and comprised WHO-L, WHO-M, WHO-X (H041), WHO-Y (F89), and WHO-Z (A8806), see FIG. 15. For use, bacteria were harvested from overnight (37° C., 5% CO2), GC-IsoVitaleX agar plate cultures and enumerated spectrophotometrically, as previously described Edwards et al (2000, Infect Immun 68(9):5354-63). Infection studies were performed using a multiplicity of infection of 100 Edwards et al (2000, Infect Immun 68(9):5354-63).
PEX cells were challenged with the noted N. gonorrhoeae strains for 90 min. For single dose survival assays, the infection medium was then removed, cells were rinsed thrice, and fresh medium containing 1% DMSO (vehicle control), carbamazepine ([…], as noted), or ceftriaxone (0.1 μg/mL or 0.5 μg/mL, positive control) was added. Infections were then allowed to proceed for an additional 24 h or 48 h. At the indicated times post-treatment, the infection medium was removed, the PEX cell monolayers were rinsed thrice, lysed, and viable N. gonorrhoeae were enumerated by counting colony forming units after plating serial dilutions of the PEX cell lysates (for example see 12). In some experiments (i.e., two dose survival assays for example see FIG. 13), a second dose of carbamazepine was added at 24 hours-post addition of the first carbamazepine dose. Infections were then allowed to proceed for an additional 24 h before plating the PEX cell lysate, as above. For either assay, the percentage of N. gonorrhoeae that survived carbamazepine or antibiotic treatment was determined as a function of bacteria that survived DMSO (vehicle control) treatment (set to 100%). […] To investigate whether the small percentage of the surviving bacterial cells have developed resistance to the treatment, sequential infection assays were conducted. Bacteria were harvested from the CFU count plates and then used to inoculate a new assay. […] All assays were performed in triplicate on 3 separate occasions with the noted bacterial strains. A Kruskal-Wallis k-sample analysis of variance was used to determine the statistical significance of bacterial survival.
The ability of a single dose of methyldopa was evaluated to inhibit survival of low-passage N. gonorrhoeae isolates in PEX cells challenged with those isolates. To establish infection, PEX cells were challenged with N. gonorrhoeae for 90 min using the noted low-passage isolates. Infections were then allowed to proceed for an additional 24 h or 48 h in the presence or absence of DMSO (1%, vehicle control), methyldopa (10 μM, Md), or ceftriaxone (0.5 μg/mL, positive control, Cfx).

T1 sequence (P11215 150-328): as the sequence (P11215 150-328 limits assumed) above

Question: How did the inhibition at 0.1 µM ([1]; 1:1 competition, 100 nM) turn out when `NC(=O)N1c2ccccc2C=Cc2ccccc21` [carbamazepine, 5H-dibenzo[b,f]azepine-5-carboxamide] was run?
Answer: The inhibition at 0.1 µM was about 99%.

Question: What about the “% inhibition” value ([1]; 1:1 competition, 100 nM, 0.1 µM) of the same compound?
Answer: Its value is 98.97%.

Question: What about the “Block MS11 pilin in SPR” value ([1]; direct competition SPR) of the same compound?
Answer: The value was “Yes”.

Question: And the “Drug RU” value ([1]; drug alone flowed at 100 nM over immobilized rI-domain)?
Answer: The value was 4.358 RU.

Question: What about the “Pilin + Drug RU” value ([1]; drug and pilin flowed at 100 nM, 1:1) of the same compound?
Answer: Its value is 4.675 RU.

Question: What about the “% inhibition” value ([2]; listed as CARBAMAZEPINE) of the same compound?
Answer: Its value is 97.09%.

Question: And the “% inhibition” value ([2]; listed as Carbamazepine)?
Answer: The value was about 97%.

Question: What about the “Block HIV in SPR” value ([2]; direct competition SPR) of the same compound?
Answer: Its value is “Yes”.

Question: What about the “Drug RU” value ([2]; drug alone flowed at 1 μM over immobilized WITO HIV) of the same compound?
Answer: Its value is 0.227 RU.

Question: What about the “Pilin + Drug RU” value ([2]; drug and human rI-domain flowed at 1 μM, 1:1) of the same compound?
Answer: Its value is 1.772 RU.

Question: And the “decrease of cell association to PEX cells” value ([3]; NL4-3, 2 h)?
Answer: The value was 88.53%±0.37.

Question: And the “reduction in cell adherence to PEX cells” value ([3]; NL4-3)?
Answer: Its value is 59.65%±0.41.

Question: And the “HIV adherence to PEX cells with increasing concentrations” value ([3]; NL4-3 and NLAD8, 2 h)?
Answer: The value was “dose-dependent decrease”.

Question: And the “decrease of cell association to PEX cells” value ([3]; NLAD8, 2 h)?
Answer: Its value is 87.98%±0.48.

Question: What about the “reduction in cell adherence to PEX cells” value ([3]; NLAD8) of the same compound?
Answer: The value was 59.65%±0.24.

Question: What about the Kd [4] of the same compound?
Answer: The Kd was 2.12 nM.

Question: What about the killing of gonococci ([5]; by 24 hours, concentrations of 10 μM or higher) of the same compound?
Answer: The killing of gonococci was “greater than 99.95%”.

Question: And the gonococcal killing ([5]; low-passage isolates, 24 h, 10 μM single dose)?
Answer: Its gonococcal killing is “Greater than 99%”.

Question: And the gonococcal killing ([5]; multidrug-resistant strains, 24 h, 10 μM single dose)?
Answer: Its gonococcal killing is “Greater than 99%”.

Question: And the gonococcal killing ([5]; strain MS11, by 24 h, single 100 nM dose)?
Answer: Its gonococcal killing is “Greater than 99%”.

Question: And the gonococcal killing ([5]; strain MS11, by 48 h, 2 100 nM doses applied 24 h apart)?
Answer: Its gonococcal killing is “greater than 99.95%”.

Question: What about the gonococcal killing ([5]; strain MS11, concentrations greater than or equal to 10 nM, 24 h or 48 h) of the same compound?
Answer: The gonococcal killing was “Greater than 98%”.

Question: What about the gonococcal killing ([5]; strain MS11, sequential infection, following the second infection, 10 μM, 24 h) of the same compound?
Answer: Its gonococcal killing is 100%.
